{"source": "patent US20210040452A1", "about": "“HEMATOPOIETIC CELLS AND METHODS OF USING AND GENERATING THE SAME” (The Regents of the University of California, priority 2015, published 2021)", "key": {"[1]": {"system": "wild type E11 whole AGM explants", "test": "AGM explant culture with DAPT, HE ratio by FACS", "type": "cell-based, mouse", "excerpt": "Currently it is not possible to predict which specific endothelial cell within a hemogenic vascular bed will transition to a hematopoietic fate. Also not known is whether endothelial cells comprising the same hemogenic site are all capable of EHT. So whether the actual cell fate conversion is a stochastic event or a predetermined fate change remains to be seen. To circumvent the current obstacles of EHT prediction, we adopted a fate tracing strategy^48 that allows measurement of traced hematopoietic cell populations from labeled endothelial precursors within a specific hemogenic vascular site. By inducing endothelial recombination of Sox17 in AGM explants using the Cdh5(PAC)-CreERT2/RTom/Sox17flox transgenic mouse line, the number of EHT derived hematopoietic cells can be quantified through fate mapping (FIG. 13c, and FIG. 25C). Tamoxifen induction in vitro with the active metabolite 4-hydroxytamoxifen (4-OHT) at E11.0 allows immediate ablation in AGM explants during EHT, and the calculation of a HE ratio which we define as traced hematopoietic cells (HCs) compared to traced endothelial cells (ECs). […] The observed increase in HE ratios and HSPC number is not due to proliferation effects (as measured by BrdU incorporation, FIG. 25D), nor is the higher HE ratio due to changes in cell death (Annexin-V staining, supplementary FIG. 25D). We also observe increases in maturing hematopoietic populations (CD31−CD117+Sca1+Td+), FIG. 25E. In addition, when a similar strategy is applied to earlier explants (E9.5) prior to hematopoietic cell cluster emergence, we observe similar trends in the HE ratio (FIG. 25F). […] To further evaluate the role of Sox17 in this process, we undertook gain-of-function studies in wildtype AGM explants using adenoviral-mediated overexpression of human Sox17 (AdhSox17-GFP), FIG. 13g. GFP expression in explants overlapped with SOX17 co-staining (FIG. 13h), allowing for cell sorting of AGM endothelial cells (CD31+) that were either successfully infected (GFP+) or not infected (GFP−) by AdhSox17-GFP, FIG. 13i. […] We also show the known positive regulation of Notch1 by Sox17, and regulation of other SoxF family members, Sox7 and Sox18.\nWhole embryos or AGMs were dissociated as described67 and stained for 30 min at 4° C. with agitation. Single cell suspensions were sorted in a BD FACS Aria III. Flow cytometric analyses were performed on a FACS Verse or FACS Aria III with FACSDiva 8.0 software (BD Biosciences) and data analyzed using FlowJo v10.0.7 (Tree Star). Gating strategy in FIG. 25C, see Table 7 for a list of antibodies.\nAGMs from Cdh5(PAC)-CreERT2/R26RTd/Sox17 and Notch1 floxed embryos were dissected and cultured for 24 hrs in 4-hydroxytamoxifen 4-OHT (Sigma H7904) as previously described48, at E11 (and E9.5 for Sox17 mutants). In vivo induction was achieved by intraperitoneal injection of 0.8 mg of tamoxifen of pregnant dams at E9.5. Tamoxifen (MP Biomedical, 156738) prepared as previously described48. DAPT γ-secretase inhibitor (Sigma, D5942) was prepared in DMSO and added directly to explant culture medium at final concentrations of 25 μM, 50 μM, 100 μM, or 200 μM. For overexpression studies, AGMs were incubated with 8×10^7 adenoviral particles per milliliter at 37 C with agitation for 1 hr prior to explant culture48. Adeno-CMV-hSox17-GFP (AdhSox17-GFP) was produced by Vector Biolabs (ADV-224019, Ref Seq: BC140307)."}, "mouse embryos at E12.5": {"system": "mouse embryos at E12.5", "test": "Mitotic arrest by nocodazole injection into mouse embryos", "type": "in vivo", "conditions": "E12.5, 2 hrs prior to sacrifice"}, "murine HSPCs": {"system": "murine HSPCs", "test": "Addition of Tgfβ1 to newly formed murine HSPCs", "type": "cell-based", "conditions": "preliminary mouse studies"}}}
{"molecule": "C[C@H](NC(=O)Cc1cc(F)cc(F)c1)C(=O)N[C@H](C(=O)OC(C)(C)C)c1ccccc1", "note": "[DAPT]", "values": [{"measurement": "HE ratios after AGM explants were exposed", "setting": "[1]", "value": "increased HE ratios"}, {"measurement": "HE ratio in comparison to control", "setting": "[1]; 50-100 μM DAPT, 24 hours, control DMSO", "value": "significant increase"}, {"measurement": "Wildtype HE ratio (DAPT), Mean", "setting": "[1]; WT + 25 μM, 24 hours", "value": 0.9771}, {"measurement": "Wildtype HE ratio (DAPT), Mean", "setting": "[1]; WT + 50 μM, 24 hours", "value": 0.9702}, {"measurement": "Wildtype HE ratio (DAPT), Mean", "setting": "[1]; WT + 100 μM, 24 hours", "value": 0.9649}, {"measurement": "Wildtype HE ratio (DAPT), Mean", "setting": "[1]; WT + 200 μM, 24 hours", "value": 0.8264}]}
{"molecule": "COC(=O)Nc1nc2ccc(C(=O)c3cccs3)cc2[nH]1", "note": "[nocodazole]", "values": [{"measurement": "mitotic arrest in the endothelium", "setting": "mouse embryos at E12.5", "value": "not arrested in mitosis"}, {"measurement": "mitotic arrest in the myocardium", "setting": "mouse embryos at E12.5", "value": "multiple cell division arrests"}]}
{"molecule": "Tgfβ1: transforming growth factor β1", "values": [{"measurement": "maturation of HSPCs", "setting": "murine HSPCs", "value": "may accelerate their maturation"}]}
